How the values were obtained:
Assay type in all cases: cell-based, human
[1] = system: skin barrier marker genes in differentiated NHEK; assay: comparative analysis of qPCR data from two donors with scoring system, single amino acids; settings: for ranking as most effective or least effective amino acids (scoring system): qPCR data from two donors
Description: The scoring system was developed to address the numerous variables arising from the experimental results. […] See, e.g., FIGS. 3 and 4.
(§1) To test the effect of amino acid treatment on epithelial skin barrier, a cellular model of differentiated normal human epidermal keratinocytes (NHEK) was utilized. Commercially available NHEK (ATCC), derived from three diverse healthy donors, were used.

[2] = system: EGF, PDGF, FGF2, and PPARD genes (skin barrier markers); assay: single amino acids and combinations on barrier marker genes EGF, FGF2, PDGF, PPARD in differentiated NHEK (FIG. 28); settings: alone or in combination; action on skin barrier markers
Experimental: Treatment time-4 h. […] Exemplary barrier marker genes examined as follows: Epidermal growth factor (EGF); fibroblast growth factor 2 (FGF2); platelet derived growth factor (PDGF); Peroxisome Proliferator Activated Receptor Delta (PPARD).
Once the skin barrier marker panel was identified, a scoring system by which to evaluate different amino acids or combinations thereof under consideration was developed. The scoring system was developed to address the numerous variables arising from the experimental results. […] Sec, e.g., FIG. 28. […] See, e.g., FIG. 29.
as §1
The marker genes: epidermal growth factor (EGF); platelet-derived growth factor (PDGF), fibroblast growth factor 2 (FGF2), peroxisome proliferator activated receptor delta (PPARD).
Amino acid(s) are mixed in previously established concentrations in water and added to amino acid-deprived culture medium.
mRNA is extracted, converted to cDNA, and analyzed by qPCR method using custom TaqMan array 384-well plates (Thermo Fisher Scientific) containing the above-mentioned genes. Control housekeeping genes were included to normalize the mRNA expression: GAPDH and/or YWHAZ. The array plate contained the genes and samples were analyzed in by qPCR.

[3] = system: TGFB mRNA; assay: TGFB mRNA fold change in donor keratinocytes, 4GAA and retinol (qPCR); settings: 4 h, amino acid-deprived medium, 4GAA 4 mM, ROL 10 μM
Experimental: (§2) FIGS. 17A-17C show the fold change of a specific gene mRNA comparing the 4 amino acid combination (Ala, Gln, Gly, Ser; 4GAA; 4 mM), and retinol (ROL; 10 μM), alone or in combination, to control (CTR; untreated control without amino acids or retinol) with Donor E, Donor G. Donor O, Donor R, and Donor T human-derived epidermal keratinocytes (NHEK) with a 4 h treatment in amino acid (AA)-deprived medium. The data are shown in graphical form showing CTR; 4GAA (4 mM); ROL (10 μM); 4GAA (4 mM)+ROL (10 μM) combination.
(§3) Keratinocytes from different donors (e.g., human-derived epidermal keratinocytes (NHEK)), skin equivalents (e.g., 3D models (human epidermal skin equivalents)), or fibroblasts (e.g., human dermal fibroblasts, adult (HDFa)) were cultured in amino acid-deprived media or complete media for 4 hours or 24 hours after complete differentiation and, in parallel, were treated with an amino acid combination (4GAA; alanine, glutamine, glycine, serine) at 4 mM, 10 μM retinol (ROL), or the combination of 4 mM 4GAA and 10 μM ROL. Cells were harvested, RNA was extracted, and qPCR analysis was performed with a housekeeping gene, e.g., GAPDH.
(§4) FIGS. 17A-17C and 18A-18C show the graphical results of the fold change, where the average fold change is depicted by the horizontal bar for each condition and each of the donors (Donors E, G, O, R, T) is depicted by a colored circle. […]

[4] = system: COL1A1 mRNA; assay: COL1A1 mRNA fold change in donor keratinocytes, 4GAA and retinol (qPCR); settings: 4 h, amino acid-deprived medium, 4GAA 4 mM, ROL 10 μM
Experimental: as §2, §3, §4

[5] = system: HAS2 mRNA; assay: HAS2 mRNA fold change in donor keratinocytes, 4GAA and retinol (qPCR); settings: 4GAA 4 mM, ROL 10 μM
Experimental: (§5) FIGS. 18A-18C show the fold change of a specific gene mRNA comparing the 4 amino acid combination (Ala, Gln, Gly, Ser; 4GAA; 4 mM), and retinol (ROL; 10 μM), alone or in combination with Donor E. Donor G. Donor O. Donor R. and Donor T human-derived epidermal keratinocytes (NHEK) to control (CTR; untreated control without amino acids or retinol) with a 4 h treatment in amino acid (AA)-deprived medium. The data of FIGS. 18A-18C are shown in graphical form showing CTR; 4GAA (4 mM); ROL (10 μM); 4GAA (4 mM)+ROL (10 μM) combination. […] FIGS. 18D-18F show the data in tabular form (Donor E (n=3). Donor G (n=3). Donor O (n=3). Donor R (n=3), and Donor T (n=3)) for fold change of HAS1 mRNA. HAS2 mRNA, and HAS3 mRNA, respectively, and in tabular form showing the fold change for each of the specified conditions under each respective graphical form.
(§6) FIGS. 19A-19D show the fold change of a specific gene mRNA comparing the 4 amino acid combination (Ala. Gln. Gly, Ser; 4GAA; 4 mM), and retinol (ROL; 10 μM), alone or in combination to control (CTR; untreated control without amino acids or retinol) with Donor O human-derived epidermal keratinocytes (NHEK) with a 24 h treatment in complete medium. The data of FIGS. 19A-19D are shown in graphical form showing CTR; 4GAA (4 mM); ROL (10 μM); 4GAA (4 mM)+ROL (10 μM) combination. […]

[6] = system: HAS3 mRNA; assay: HAS3 mRNA fold change in donor keratinocytes, 4GAA and retinol (qPCR); settings: 4GAA 4 mM, ROL 10 μM
Experimental: as §5, §6

[7] = Donor O and Donor R keratinocytes, 24 h, complete medium
[8] = donor keratinocytes, 4 h, amino acid-deprived medium

Row | Compound | ranking as most effective or least effective amino acids (scoring system) [1] | effect on skin regeneration including skin barrier function [2] | also measured
1 | C[C@H](N)C(=O)O [Ala, alanine] | most effective | beneficial effect | –
2 | N=C(N)NCCC[C@H](N)C(=O)O [Arg, arginine] | – | beneficial effect | effects in preliminary screens [1]: positive effects
3 | N[C@@H](CC(=O)O)C(=O)O [Asp, aspartic acid] | least effective | – | –
4 | N[C@@H](CS)C(=O)O [Cys, cysteine] | least effective | – | –
5 | NC(=O)CC[C@H](N)C(=O)O [Gln, glutamine] | most effective | beneficial effect | –
6 | NCC(=O)O [Gly, glycine] | most effective | beneficial effect | –
7 | O=C(O)[C@@H]1CCCN1 [Pro] | least effective | – | –
8 | CC1=C(/C=C/C(C)=C/C=C/C(C)=C/CO)C(C)(C)CCC1 [ROL, retinol] | – | – | TGFB mRNA expression [3]: upregulated; COL1A1 mRNA expression [4]: upregulated; HAS2 mRNA gene expression [5, 7]: upregulated; HAS2 gene expression [5, 8]: upregulated; HAS3 mRNA gene expression [6, 7]: upregulated; HAS3 gene expression [6, 8]: upregulated
9 | N[C@@H](CO)C(=O)O [Ser, serine] | most effective | beneficial effect | –
10 | C[C@@H](O)[C@H](N)C(=O)O [Thr, threonine] | least effective | beneficial effect | –
11 | N[C@@H](Cc1c[nH]c2ccccc12)C(=O)O [Trp, tryptophan] | – | beneficial effect | effects in preliminary screens [1]: positive effects
12 | N[C@@H](Cc1ccc(O)cc1)C(=O)O [Tyr, tyrosine] | least effective | – | –
13 | CC[C@H](C)[C@H](N)C(=O)O [isoleucine] | – | beneficial effect | –
14 | CC(C)[C@H](N)C(=O)O [valine] | – | beneficial effect | –

From patent US20250000767A1, “FORMULATIONS AND METHODS FOR SKIN REGENERATION” (ENTRINSIC, LLC, priority 2023, published 2025)
